System: ara-C metabolic pathway genes
Test: Association of ara-C pathway SNP genotypes with MRD1, EFS and OS in AML02 (logistic regression and Cox models; also within LDAC and HDAC arms)
Set-up: species or system human
Conditions: within arm of AML02
Source text: Genomic DNA from patients enrolled in the multi-site St. Jude AML02 trial was genotyped for 155 SNPs in 16 genes of relevance to ara-C pharmacology using sequenom iPlex platform that uses MALDI-TOF based chemistry at University of Minnesota, Biomedical Genomics Center. SNPs were selected based on previously reported studies. For SNPs lacking literature on genetic variation, SNPs were selected to capture LD blocks (European and African ancestry) on a gene. Of 155 SNPs, 1 SNP was excluded due to low call rate (<90%), 47 SNPs were excluded due to minimum allele frequency of less than 5%, 11 SNPs were excluded due to high LD (r^2>0.9) with other SNPs; two SNPs were excluded because of deviation from Hardy-Weinberg equilibrium. Genotype for the COG-AAML0531 cohort for the selected SNPs was obtained using sequenom platform or TaqMan genotyping assays, and for a few SNPs was extracted from the data available on Illumina 2.5 Omni array. Genotype calls from multiple platforms were confirmed across multiple samples randomly collected from the cohort.
SNP genotype groups in three different modes of inheritance (additive, dominant, and recessive) were tested for association with MRD1 using logistic regression models. Odds ratio (OR) and 95% confidence interval (CI) were calculated for each test. SNPs with association P-value<0.05 were considered significant. Cox-proportional hazard models were used to evaluate association of genotype groups with EFS or OS. Hazard ratio (HR) and 95% CI were calculated for each test. p-value<0.05 was considered statistically significant. Given initial risk group assignments are well-established prognostic factors associated with outcome, outcome association analysis of SNPs with and without adjusting for risk group was also performed to identify SNPs that are associated with outcome independent of risk group.
SNPs with p<0.15 in risk-adjusted univariate evaluation with clinical endpoints (MRD1, EFS, and OS) were tested for all possible combinations with a maximum of three SNPs per model in multivariable logistic regression models for association with MRD1 and Cox-proportional hazard models for association with EFS and OS. Analysis for up to 3 SNP combinations was restricted due to computational challenges as increasing the maximum number of SNPs per model drastically increases the number of models as 1000 permutations were run for each model. Models were ordered according to their Bayesian Information Criterion (BIC) and weight in favor of each model. One thousand permutation tests were performed for each model to determine statistical significance. The six unique SNPs from the most significant models for EFS and MRD1 were included in the development of the ACS10 score as described in the results section.
The multicenter AML02 clinical trial randomly assigned subjects to receive low dose ara-C (LDAC: 100 mg/m^2; n=91 patients) or high dose ara-C(HDAC: 3 g/m^2; n=75 patients) in combination with daunorubicin and etoposide as the first course of chemotherapy as described above in patient cohort section. Thus, the association of SNPs with outcome within each arm separately was also explored (Table 5).

[1] = rs4742 (DCTD, WT T, VAR C), MOI R
[2] = rs5841 (NME4, WT C, VAR T), MOI D
[3] = rs324148 (SLC29A1, WT C, VAR T), MOI A
[4] = rs407983 (NME4, WT G, VAR C), MOI A
[5] = rs507964 (SLC29A1, WT C, VAR A), MOI R
[6] = rs580032 (CDA, WT T, VAR G), MOI D
[7] = rs602950 (CDA, WT T, VAR C), MOI A
[8] = rs747199 (SLC29A1, WT C, VAR G), MOI D
[9] = rs818196 (CDA, WT G, VAR C), MOI D
[10] = rs1048977 (CDA, WT C, VAR T), MOI D
[11] = rs1138729 (RRM2, WT A, VAR G), MOI D
[12] = rs2072671 (CDA, WT A, VAR C), MOI A
[13] = rs2396243 (SLC29A1, WT G, VAR A), MOI D
[14] = rs3088062 (CMPK1, WT T, VAR C), MOI A
[15] = rs3743162 (SLC28A1, WT C, VAR T), MOI D
[16] = rs3829540 (NME3, WT G, VAR A), MOI D
[17] = rs3925058 (CMPK1, WT T, VAR C), MOI D
[18] = rs4247411 (SLC28A1, WT C, VAR T), MOI D
[19] = rs4271567 (SLC28A1, WT T, VAR A), MOI R
[20] = rs4643786 (DCK, WT T, VAR C), MOI R

**Q.** For `Nc1ccn([C@@H]2O[C@H](CO)[C@@H](O)[C@@H]2O)c(=O)n1` [LDAC, cytarabine], which “EFS HR (95% CI)” value [1] is on record?
**A.** The value was 1.49 (0.93-2.4).

**Q.** And the “MRD1 OR (95% CI)” value [1]?
**A.** The value was 1.19 (0.57-2.46).

**Q.** What about the “OS HR (95% CI)” value [1] of the same compound?
**A.** Its value is 1.96 (1.2-3.21).

**Q.** What about the “EFS HR (95% CI)” value [2] of the same compound?
**A.** The value was 0.94 (0.68-1.31).

**Q.** And the “MRD1 OR (95% CI)” value [2]?
**A.** Its value is 0.7 (0.45-1.08).

**Q.** What about the “OS HR (95% CI)” value [2] of the same compound?
**A.** The value was 0.86 (0.58-1.27).

**Q.** And the “EFS HR (95% CI)” value [3]?
**A.** Its value is 1.35 (0.85-2.13).

**Q.** And the “MRD1 OR (95% CI)” value [3]?
**A.** Its value is 0.37 (0.17-0.78).

**Q.** And the “OS HR (95% CI)” value [3]?
**A.** Its value is 1.14 (0.64-2.04).

**Q.** What about the “EFS HR (95% CI)” value [4] of the same compound?
**A.** Its value is 1.36 (0.88-2.09).

**Q.** And the “MRD1 OR (95% CI)” value [4]?
**A.** The value was 0.92 (0.53-1.59).

**Q.** And the “OS HR (95% CI)” value [4]?
**A.** Its value is 1.73 (1-2.98).

**Q.** And the “EFS HR (95% CI)” value [5]?
**A.** The value was 1.54 (1.04-2.29).

**Q.** What about the “MRD1 OR (95% CI)” value [5] of the same compound?
**A.** Its value is 1.41 (0.76-2.62).

**Q.** And the “OS HR (95% CI)” value [5]?
**A.** The value was 1.1 (0.64-1.88).

**Q.** What about the “EFS HR (95% CI)” value [6] of the same compound?
**A.** Its value is 0.86 (0.51-1.44).

**Q.** What about the “MRD1 OR (95% CI)” value [6] of the same compound?
**A.** Its value is 1.16 (0.63-2.13).

**Q.** What about the “OS HR (95% CI)” value [6] of the same compound?
**A.** The value was 1.12 (0.65-1.9).

**Q.** What about the “EFS HR (95% CI)” value [7] of the same compound?
**A.** The value was 0.56 (0.33-0.96).

**Q.** What about the “MRD1 OR (95% CI)” value [7] of the same compound?
**A.** Its value is 0.57 (0.3-1.08).

**Q.** What about the “OS HR (95% CI)” value [7] of the same compound?
**A.** Its value is 0.68 (0.36-1.26).

**Q.** And the “EFS HR (95% CI)” value [8]?
**A.** The value was 0.88 (0.61-1.28).

**Q.** What about the “MRD1 OR (95% CI)” value [8] of the same compound?
**A.** Its value is 1.18 (0.75-1.88).

**Q.** What about the “OS HR (95% CI)” value [8] of the same compound?
**A.** The value was 0.55 (0.3-1).

**Q.** What about the “EFS HR (95% CI)” value [9] of the same compound?
**A.** Its value is 1.18 (0.85-1.64).

**Q.** And the “MRD1 OR (95% CI)” value [9]?
**A.** Its value is 1.28 (0.82-2).

**Q.** What about the “OS HR (95% CI)” value [9] of the same compound?
**A.** The value was 1.09 (0.73-1.62).

**Q.** And the “EFS HR (95% CI)” value [10]?
**A.** The value was 1.48 (1.06-2.08).

**Q.** And the “MRD1 OR (95% CI)” value [10]?
**A.** The value was 1.21 (0.79-1.85).

**Q.** And the “OS HR (95% CI)” value [10]?
**A.** Its value is 1.14 (0.77-1.69).

**Q.** What about the “EFS HR (95% CI)” value [11] of the same compound?
**A.** The value was 1.55 (1.11-2.18).

**Q.** And the “MRD1 OR (95% CI)” value [11]?
**A.** The value was 1.19 (0.73-1.94).

**Q.** What about the “OS HR (95% CI)” value [11] of the same compound?
**A.** The value was 1.41 (0.93-2.14).

**Q.** And the “EFS HR (95% CI)” value [12]?
**A.** The value was 0.58 (0.35-0.95).

**Q.** What about the “MRD1 OR (95% CI)” value [12] of the same compound?
**A.** Its value is 0.57 (0.31-1.04).

**Q.** What about the “OS HR (95% CI)” value [12] of the same compound?
**A.** Its value is 0.68 (0.38-1.23).

**Q.** What about the “EFS HR (95% CI)” value [13] of the same compound?
**A.** The value was 1.56 (1.12-2.16).

**Q.** And the “MRD1 OR (95% CI)” value [13]?
**A.** Its value is 0.92 (0.59-1.43).

**Q.** And the “OS HR (95% CI)” value [13]?
**A.** Its value is 1.59 (1.07-2.36).

**Q.** What about the “EFS HR (95% CI)” value [14] of the same compound?
**A.** Its value is 1.66 (0.99-2.8).

**Q.** And the “MRD1 OR (95% CI)” value [14]?
**A.** The value was 2.37 (1.06-5.28).

**Q.** And the “OS HR (95% CI)” value [14]?
**A.** The value was 1.63 (0.89-3.01).

**Q.** And the “EFS HR (95% CI)” value [15]?
**A.** The value was 0.82 (0.56-1.19).

**Q.** What about the “MRD1 OR (95% CI)” value [15] of the same compound?
**A.** The value was 0.77 (0.48-1.23).

**Q.** What about the “OS HR (95% CI)” value [15] of the same compound?
**A.** The value was 1.07 (0.71-1.64).

**Q.** And the “EFS HR (95% CI)” value [16]?
**A.** The value was 1.23 (0.89-1.71).

**Q.** What about the “MRD1 OR (95% CI)” value [16] of the same compound?
**A.** The value was 1.15 (0.73-1.8).

**Q.** And the “OS HR (95% CI)” value [16]?
**A.** The value was 1.22 (0.82-1.82).

**Q.** And the “EFS HR (95% CI)” value [17]?
**A.** Its value is 0.7 (0.51-0.97).

**Q.** And the “MRD1 OR (95% CI)” value [17]?
**A.** The value was 0.6 (0.38-0.95).

**Q.** And the “OS HR (95% CI)” value [17]?
**A.** The value was 0.76 (0.51-1.13).

**Q.** What about the “EFS HR (95% CI)” value [18] of the same compound?
**A.** The value was 1.05 (0.73-1.51).

**Q.** And the “MRD1 OR (95% CI)” value [18]?
**A.** Its value is 0.94 (0.59-1.51).

**Q.** And the “OS HR (95% CI)” value [18]?
**A.** Its value is 1.03 (0.67-1.59).

**Q.** What about the “EFS HR (95% CI)” value [19] of the same compound?
**A.** The value was 1 (0.69-1.46).

**Q.** And the “MRD1 OR (95% CI)” value [19]?
**A.** Its value is 0.76 (0.46-1.28).

**Q.** And the “OS HR (95% CI)” value [19]?
**A.** The value was 1.12 (0.72-1.74).

**Q.** And the “EFS HR (95% CI)” value [20]?
**A.** The value was 2.15 (1.28-3.64).

**Q.** What about the “MRD1 OR (95% CI)” value [20] of the same compound?
**A.** The value was 2.34 (0.76-7.15).

**Q.** What about the “OS HR (95% CI)” value [20] of the same compound?
**A.** The value was 1.7 (0.92-3.11).

Source: patent publication US20240344145A1, “PHARMACOGENOMICS SCORE TO MAKE DECISIONS ON THERAPY AUGMENTATION IN AML” (University of Florida Research Foundation, Incorporated, priority 2021, published 2024)
